In US20030148498A1, “Microorganism overproducing 5'-xanthylic acid” (priority 2001, published 2003):

Experiments:
Parent strain KFCC 10743 = assay: Growth of parent strain in minimum medium with 3,4-dehydroproline; assay type: cell-based, Corynebacterium ammoniagenes; set-up: key to growth: +: growth; −: no growth; details: 5 days; for growth: 30° C.
Experimental: (§1) To be more specific, in this innovative research, we adopted Corynebacterium ammoniagenes KFCC 10743 as parent strain and treated it with UV radiation and mutation derivatives such as N-methyl-N′-nitro-N-nitrosoguanidine (NTG) according to ordinary procedure and, by adding 0 to 50 mg/L of proline analogue 3,4-dehydroproline (Sigma Company) in the minimum medium shown in the following Table 1, we developed growing mutant strains. From them, a strain which grows in 30 mg/L 3,4-dehydroproline was separated, named CJXPK001. And, it was deposited under the Budapest Treaty to the Korea Culture Center of Microorganisms on Dec. 7, 2001 with accession Number KCCM 10340.
(§2) Further, after adding 0 to 50 mg/L of 3,4-dehydroproline in the minimum medium shown in the above Table 1 according to concentration levels, the medium was fermented at 30° C. for 5 days. And the whole process was scrutinized to find the growth rates of the mutant strain CJXPK001 and the parent strain KFCC 10743.

Mutant strain CJXPK001 = assay: Growth of mutant strain in minimum medium with 3,4-dehydroproline; assay type: cell-based, Corynebacterium ammoniagenes; set-up: key: +: growth; −: no growth; details: 30° C., 5 days
Experimental: as §1, §2

[1] = parent strain KFCC 10743, 30° C.

O=C(O)C1C=CCN1 (centres unmarked) [3,4-dehydroproline]
growth (Parent strain KFCC 10743; 3,4-dehydroproline 5 mg/L): +
growth (Parent strain KFCC 10743; 3,4-dehydroproline 10 mg/L): −
growth (Parent strain KFCC 10743; 3,4-dehydroproline 20 mg/L): −
growth (Parent strain KFCC 10743; 3,4-dehydroproline 30 mg/L): −
growth (Parent strain KFCC 10743; 3,4-dehydroproline 40 mg/L): −
growth (Parent strain KFCC 10743; 3,4-dehydroproline 50 mg/L): −
3,4-dehydroproline concentration at which the strain showed resistance (Parent strain KFCC 10743; [1]): 5 mg/L
3,4-dehydroproline concentration level at which no growth was observed (Parent strain KFCC 10743; [1]): above 10 mg/L
growth (Mutant strain CJXPK001; 3,4-dehydroproline 30 mg/L): +
growth (Mutant strain CJXPK001; 3,4-dehydroproline 40 mg/L): −
growth (Mutant strain CJXPK001; 3,4-dehydroproline 50 mg/L): −
